Experimental data: patent publication EP0495226B1, “3-Aryl-5-alkylthio-4H-1,2,4-triazoles for treatment of hyperreflexia due to spinal trauma” (priority 1990, dated 1992)
Like-named read-outs stand apart in the source and are kept apart here.

Key:
[1] = tested on: heightened spontaneous hind limb movements; assay: Spontaneous hind limb reflex activity in spinally transected rats (hyperreflexia); type: in vivo; details: for Integrated Activity, % of Control: ip, 30 minutes after dosing, spinally transected rats; for muscle spasticity: intraperitoneally
Experimental: The effectiveness of the compounds of this invention for treating muscle spasticity resulting from spinal trauma was tested in rats with heightened spontaneous hind limb movements. Four to six weeks before testing, anesthetized rats were spinally transected at the mid-thoracic level, resulting in this form of spontaneous limb activity. 4-Methyl-3-phenyl-5-methylsulfonyl-4H-1,2,4-triazole or clonidine were given intraperitoneally, and after 30-minutes reflex activity was measured in treated animals and untreated controls by a computerized apparatus designed to record, integrate and analyze this activity. […]

[2] = tested on: strychnine-induced seizures; assay: animal or person; type: in vivo, mice; details: for ED50: Mus musculus, read-out: ED₅₀
Experimental: Groups of 10 to 20 male mice are administered one or more doses of test compound in an appropriate vehicle or, for comparison, the vehicle alone. At a selected time thereafter, strychnine sulfate, prepared as a solution in distilled water, is administered intraperitoneally at a dose of 2.7 mg/kg. […] Absence of tonic extension for greater than 15 minutes after strychnine administration is considered significant protection.

SMILES: Cn1c(-c2ccccc2)nnc1S(C)(=O)=O [4-Methyl-3-phenyl-5-methylsulfonyl-4H-1,2,4-triazole]
- Integrated Activity, % of Control ([1]; 5.0 mg/kg): 137 ± 10 % of Control
- Integrated Activity, % of Control ([1]; 10.0 mg/kg): 42.9 ± 12.7 % of Control
- Integrated Activity, % of Control ([1]; 20.0 mg/kg): 75.3 ± 19.3 % of Control
- Integrated Activity, % of Control ([1]; 40.0 mg/kg): 51.3 ± 11.9 % of Control
- muscle spasticity ([1]; rats treated with more than 5 mg/kg): substantial reduction
- ED50 ([2]; ip): 12.8 mg/kg
- ED50 ([2]; po): 7.3 mg/kg

SMILES: CCSc1nnc(-c2ccccc2F)n1C [4-methyl-3-(2-fluorophenyl)-5-ethylthio-4H-1,2,4-triazole]
- ED50 ([2]; ip): 18.6 mg/kg
- ED50 ([2]; po): 15.1 mg/kg

SMILES: CC[S+]([O-])c1nnc(-c2ccccc2)n1C (stereo not drawn) [4-methyl-3-phenyl-5-ethylsulfinyl-4H-1,2,4-triazole]
- ED50 ([2]; ip): 14.4 mg/kg
- ED50 ([2]; po): 8.1 mg/kg

SMILES: CCS(=O)(=O)c1nnc(-c2ccccc2)n1C [4-methyl-3-phenyl-5-ethylsulfonyl-4H-1,2,4-triazole]
- ED50 ([2]; ip): 19.3 mg/kg
- ED50 ([2]; po): 8.5 mg/kg

SMILES: Clc1cccc(Cl)c1N=C1NCCN1 [Clonidine, clonidine, reference compound]
- Integrated Activity, % of Control ([1]; 3.1 µg/kg): 130.2 ± 43.9 % of Control
- Integrated Activity, % of Control ([1]; 12.5 µg/kg): 50.4 ± 9.8 % of Control
- Integrated Activity, % of Control ([1]; 50.0 µg/kg): 32.5 ± 9.5 % of Control
- muscle spasticity ([1]; rats treated with more than 3.1 µg/kg): substantial reduction

SMILES: CN1C(=O)CN=C(c2ccccc2)c2cc(Cl)ccc21 [Diazepam, reference compound]
- ED50 ([2]; ip): 1.2 mg/kg

SMILES: Clc1ccc2nsnc2c1NC1=NCCN1 [Tizanidine, reference compound]
- maximal protection ([2]; at 3.1 mg/kg i.p., doses of up to 50 mg/kg do not cause a greater effect, mice): 60%

SMILES: NCC(CC(=O)O)c1ccc(Cl)cc1 (stereo not drawn) [baclofen, reference compound]
- antagonism of strychnine-induced seizures ([2]; dosage range of from 12.5 to 200 mg/kg i.p., mice): over 50%
- protection ([2]; no dose (12.5 to 200 mg/kg i.p.) causes 100% protection, mice): < 100%
